Measured values from US12398121B2 (Nuvation Bio Inc., priority 2018, dated 2025).
Like-named read-outs stand apart in the source and are kept apart here.

How the values were obtained:
Human recombinant PARP2 = Human recombinant PARP2 (Homo sapiens, UniProt Q9UGN5); experiment: RBC HotSpot PARP2 radioisotope-based filter binding assay; type: biochemical
How it was run: (§1)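 Radiometric filter-binding assay: 2.5 nM recombinant enzyme with 20 μM histone (H4 for PARP1, H3 for PARP2) and activated DNA, pH 8.0, 1% DMSO. 20 min preincubation, then 10 μM ^32P-NAD^+ for 2 h at room temperature; filtered radioactivity gives IC50 fits.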

AR in LNCaP cytosol = molecular target: T1, AR in LNCaP cytosol (Homo sapiens, UniProt P10275, T878A); experiment: AR binding assay (3H-methyltrienolone displacement)
T1 construct: endogenous in cells; host or cells: LNCaP cytosol
T1 sequence (P10275 1-920 T878A): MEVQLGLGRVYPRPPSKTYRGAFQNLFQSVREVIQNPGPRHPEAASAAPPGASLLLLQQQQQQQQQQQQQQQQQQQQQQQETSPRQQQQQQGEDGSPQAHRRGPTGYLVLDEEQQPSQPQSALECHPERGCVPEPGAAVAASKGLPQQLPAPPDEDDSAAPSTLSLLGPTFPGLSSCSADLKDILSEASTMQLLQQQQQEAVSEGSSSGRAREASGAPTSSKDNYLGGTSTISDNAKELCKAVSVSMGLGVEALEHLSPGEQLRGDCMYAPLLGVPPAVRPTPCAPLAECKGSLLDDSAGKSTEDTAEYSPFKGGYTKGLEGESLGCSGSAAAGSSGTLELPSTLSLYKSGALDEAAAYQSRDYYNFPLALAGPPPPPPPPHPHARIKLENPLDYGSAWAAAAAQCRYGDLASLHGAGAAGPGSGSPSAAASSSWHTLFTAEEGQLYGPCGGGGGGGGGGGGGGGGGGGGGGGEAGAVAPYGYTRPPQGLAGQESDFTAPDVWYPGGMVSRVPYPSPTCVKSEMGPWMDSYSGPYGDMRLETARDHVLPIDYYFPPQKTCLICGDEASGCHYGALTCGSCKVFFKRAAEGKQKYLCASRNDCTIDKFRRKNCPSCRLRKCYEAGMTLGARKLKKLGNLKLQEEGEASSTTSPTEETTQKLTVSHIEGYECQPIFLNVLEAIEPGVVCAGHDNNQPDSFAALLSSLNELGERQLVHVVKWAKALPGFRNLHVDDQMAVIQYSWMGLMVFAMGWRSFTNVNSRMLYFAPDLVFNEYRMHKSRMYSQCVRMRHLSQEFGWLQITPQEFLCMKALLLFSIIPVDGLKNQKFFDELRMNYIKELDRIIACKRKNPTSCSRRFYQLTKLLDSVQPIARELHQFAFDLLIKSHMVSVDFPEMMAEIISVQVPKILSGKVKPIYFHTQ
Procedure: The following methods are for evaluating the in vitro biology properties of the test articles. • a. RBC HotSpot Poly(ADP-ribose) Polymerases 1 (PARP1) and Poly(ADP-ribose) Polymerases 2 (PARP2) Assays: The assay principle is radioisotope-based filter binding assay where incorporation of radioisotope-labeled NAD^+ into the substrate captured on filter is detected after washout free NAD^+. Data were analyzed using Excel and GraphPad Prism software for IC50 curve fits. Each assay was conducted with PJ34 as a positive control. • i. PARP1 assay: Human recombinant PARP1 at a final concentration of 2.5 nM was combined with histone H4 (20 μM) and test articles at various concentrations in reaction buffer (50 mM Tris-HCL, pH 8.0, 50 mM NaCl, 10 mM MgCl2, 1 mM DTT, 1% DMSO, and 20 μg/mL activated DNA). The solution was inoculated for 20 min at room temperature and the reaction initiated by adding [adenylate-^32P]-Nicotinamide Adenine Dinucleotide, ^32P-NAD^+ at a final concentration of 10 μM. After incubation for 2 hour at room temperature, the reaction mixture was filtered and washed with 0.75% phosphoric acid for radioactivity detection. • ii. PARP2 assay: Human recombinant PARP2 at a final concentration of 2.5 nM was combined with histone H3 (20 μM) and test articles at various concentrations in reaction buffer (50 mM Tris-HCL, pH 8.0, 50 mM NaCl, 10 mM MgCl2, 1 mM DTT, 1% DMSO, and 20 μg/mL activated DNA). The solution was inoculated for 20 min at room temperature and the reaction was initiated by adding [adenylate-^32P]-Nicotinamide Adenine Dinucleotide, ^32P-NAD^+ at a final concentration of 10 μM. After incubation for 2 hour at room temperature, the reaction mixture was filtered and washed with 0.75% phosphoric acid for radioactivity detection. • b. AR binding assay: AR in LNCaP cytosol was used for determining the binding affinity of test articles and the reference compound—progesterone (Sigma, Cat: E2785, St. Louis, MO). IC50s were determined using 8 concentrations/compound. Cytosol was plated at 200 μg/well (100 μL) into a 96-well conical polypropylene plate (Agilent, Cat: 5042-1385, Santa Clara, CA) and mixed with 3 μL of test compound. After adding 100 μL of ^3H-methyltrienolone (PerkinElmer, Cat: NET590250UC, San Jose, CA), the plate was sealed and shaken at 300 rpm at 4° C. for 24 hours. Post incubation, 100 μL of radioligand adsorption buffer containing 10 mM Tris-HCl, pH 7.4; 1.5 mM EDTA; 1 mM DTT; 0.25% charcoal; 0.0025% dextran was added to individual well. Plate was shaken for 15 min at 4′C followed by centrifugation at 3000 rpm for 30 min at 4° C. 150 μL of supernatant was transferred into scint-tube (PerkinElmer, Cat: 6000192) and mixed with 2 mL of Ultima Gold Cocktail (PerkinElmer, Cat: 6013329). Radioactivity was counted using a TriCarb 2910 TR scintillation counter (PerkinElmer). Inhibition of the radioactivity by test articles were calculated using the equation below: % Inhibition=(1−(Assay well−Average_LC)/(Average_HC−Average_LC))×100%.
IC50 values were calculated and graphed using the model “log(inhibitor) vs. response—Variable slope” included in GraphPad Prism 5 (San Diego, CA). The Ki values were further calculated using the equation below where [L] was the radioligand concentration (1 nM) using in this study. Kd value was 0.332 nM. Ki=IC50/(1+[L]/Kd) c. AR transactivation: Human AR cloned into a CMV vector backbone was used for the transactivation study. HEK-293 cells were plated at 80,000 cells per well of a 24 well plate in DME+5% csFBS. Twenty four hours later, the cells were transfected using Lipofectamine (Invitrogen, Carlsbad, CA) with 0.25 μg GRE-LUC, 0.01 μg CMV-LUC (renilla luciferase) and 25 ng of the AR in OPTIMEM medium. The cells were treated 24 hrs after transfection with various ligands (10^−12 to 10^−5 M final concentrations) and luciferase assay were performed 48 hours after transfection. […]

Human recombinant PARP1 = Human recombinant PARP1 (Homo sapiens, UniProt P09874); experiment: RBC HotSpot PARP1 radioisotope-based filter binding assay; type: biochemical
How it was run: as §1

[1] = 2.5 nM enzyme, histone H3, 10 μM 32P-NAD+, read-out: PARP2 IC50
[2] = Ki=IC50/(1+[L]/Kd), [L] 1 nM, Kd 0.332 nM, read-out: AR Ki
[3] = 2.5 nM enzyme, histone H4, 10 μM 32P-NAD+, read-out: PARP1 IC50

Human recombinant PARP2, sequence (Q9UGN5 whole entry): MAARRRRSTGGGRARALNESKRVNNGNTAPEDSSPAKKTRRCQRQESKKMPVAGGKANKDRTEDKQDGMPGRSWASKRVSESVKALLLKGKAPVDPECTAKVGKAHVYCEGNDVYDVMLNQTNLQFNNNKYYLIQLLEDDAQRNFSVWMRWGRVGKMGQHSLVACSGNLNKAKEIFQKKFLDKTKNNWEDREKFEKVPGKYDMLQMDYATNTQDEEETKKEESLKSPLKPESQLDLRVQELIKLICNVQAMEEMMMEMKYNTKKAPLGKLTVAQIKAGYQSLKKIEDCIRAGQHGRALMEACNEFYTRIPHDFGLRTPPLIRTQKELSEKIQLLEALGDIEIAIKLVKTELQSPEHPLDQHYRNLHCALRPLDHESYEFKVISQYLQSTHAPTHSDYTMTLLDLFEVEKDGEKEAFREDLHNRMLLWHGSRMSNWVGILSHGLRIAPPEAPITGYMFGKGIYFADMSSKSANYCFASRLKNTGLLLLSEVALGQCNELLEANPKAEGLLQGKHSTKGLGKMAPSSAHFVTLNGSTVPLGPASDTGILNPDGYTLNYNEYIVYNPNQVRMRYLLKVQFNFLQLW
Human recombinant PARP1, sequence (P09874 whole entry): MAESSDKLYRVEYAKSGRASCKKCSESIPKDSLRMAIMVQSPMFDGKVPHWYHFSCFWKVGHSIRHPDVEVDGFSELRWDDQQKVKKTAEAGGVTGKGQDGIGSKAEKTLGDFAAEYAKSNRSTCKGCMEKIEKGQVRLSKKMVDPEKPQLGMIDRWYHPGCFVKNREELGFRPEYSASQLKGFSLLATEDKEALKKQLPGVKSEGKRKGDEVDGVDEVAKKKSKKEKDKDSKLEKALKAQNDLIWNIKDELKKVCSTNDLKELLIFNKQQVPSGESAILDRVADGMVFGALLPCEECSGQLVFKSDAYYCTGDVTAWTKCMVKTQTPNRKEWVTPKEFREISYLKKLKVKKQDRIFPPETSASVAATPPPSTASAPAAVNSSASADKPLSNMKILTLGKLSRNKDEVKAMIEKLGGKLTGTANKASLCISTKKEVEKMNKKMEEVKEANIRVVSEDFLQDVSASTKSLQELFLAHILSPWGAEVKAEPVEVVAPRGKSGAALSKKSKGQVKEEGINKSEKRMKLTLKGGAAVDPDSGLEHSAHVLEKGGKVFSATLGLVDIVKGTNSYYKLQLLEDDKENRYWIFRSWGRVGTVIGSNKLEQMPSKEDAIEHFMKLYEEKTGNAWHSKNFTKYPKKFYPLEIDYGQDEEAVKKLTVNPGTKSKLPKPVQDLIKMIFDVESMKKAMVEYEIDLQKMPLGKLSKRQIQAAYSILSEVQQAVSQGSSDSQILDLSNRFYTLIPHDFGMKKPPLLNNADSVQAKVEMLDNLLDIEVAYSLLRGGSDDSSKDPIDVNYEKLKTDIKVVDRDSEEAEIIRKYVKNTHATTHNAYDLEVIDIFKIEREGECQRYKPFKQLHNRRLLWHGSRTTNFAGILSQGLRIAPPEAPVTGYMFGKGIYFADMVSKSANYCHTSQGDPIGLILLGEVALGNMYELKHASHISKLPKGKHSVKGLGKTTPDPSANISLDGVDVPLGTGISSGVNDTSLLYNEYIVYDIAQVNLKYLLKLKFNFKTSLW

| SMILES | IC50 (Human recombinant PARP2; [1]) | Ki (AR in LNCaP cytosol; [2]) | IC50 (Human recombinant PARP1; [3]) | IC50 (Human recombinant PARP2) | Ki (AR in LNCaP cytosol) | IC50 (Human recombinant PARP1) |
| --- | --- | --- | --- | --- | --- | --- |
| C[C@]12CCC(=O)C[C@@H]1CC[C@@H]1[C@@H]2CC[C@@]2(C)[C@H]1CC[C@@]2(O)C#CCN1CCN(C(=O)c2cc(Cc3n[nH]c(=O)c4ccccc34)ccc2F)CC1 [Compound 1.118, 4-(4-fluoro-3-(4-(3-((5S,8R,9S,10S,13S,14S,17S)-17-hydroxy-10,13-dimethyl-3-oxohexadecahydro-1H-cyclopenta[a]phenanthren-17-yl)prop-2-ynyl)piperazine-1-carbonyl)benzyl)phthalazin-1(2H)-one] | 1 nM | > 7470 nM | 13.6 nM |  |  |  |
| CC1(C)C(=O)N(c2ccc(C#N)c(C(F)(F)F)c2)C(=S)N1c1ccc(C(=O)NCCCCCCNCc2ccc(-c3[nH]c4cc(F)cc5c4c3CCNC5=O)cc2)c(F)c1 [Compound 1.5, 4-(3-(4-cyano-3-(trifluoromethyl)phenyl)-5,5-dimethyl-4-oxo-2-thioxoimidazolidin-1-yl)-2-fluoro-N-(6-((4-(8-fluoro-1-oxo-2,3,4,6-tetrahydro-1H-azepino[5,4,3-cd]indol-5-yl)benzyl)amino)hexyl)benzamide] |  |  |  | 2 nM | 291 nM | 23 nM |
| C[C@]12CCC(=O)C[C@@H]1CC[C@@H]1[C@@H]2CC[C@@]2(C)[C@H]1CC[C@@]2(O)CCC(=O)N1CCN(C(=O)c2cc(Cc3n[nH]c(=O)c4ccccc34)ccc2F)CC1 (stereo in doubt) [Compound 1.117, 4-(4-fluoro-3-(4-(3-((5S,8R,9S,10S,13S,14S,17R)-17-hydroxy-10,13-dimethyl-3-oxohexadecahydro-1H-cyclopenta[a]phenanthren-17-yl)propanoyl)piperazine-1-carbonyl)benzyl)phthalazin-1(2H)-one] | 0.1 nM |  | 0.3 nM |  | 60 nM |  |
| C[C@]12CCC(=O)C[C@@H]1CC[C@@H]1[C@@H]2CC[C@]2(C)[C@@H](OCCOCC(=O)N3CCN(C(=O)c4cc(Cc5n[nH]c(=O)c6ccccc56)ccc4F)CC3)CC[C@@H]12 [Compound 1.104, 4-(3-(4-(2-(2-((5S,8R,9S,10S,13S,14S,17S)-10,13-dimethyl-3-oxohexadeca hydro-1H-cyclopenta[a]phenanthren-17-yloxy)ethoxy)acetyl)piperazine-1-carbonyl)-4-fluorobenzyl)phthalazin-1(2H)-one] | 0.3 nM | 167 nM | 1.2 nM |  |  |  |
| CC(O)(CS(=O)(=O)c1ccc(NCCn2cc(CN3CCN(C(=O)c4cc(Cc5n[nH]c(=O)c6ccccc56)ccc4F)CC3)nn2)cc1)C(=O)Nc1ccc(C#N)c(C(F)(F)F)c1 (stereo in doubt) [Compound 1.97, (S)-N-(4-cyano-3-(trifluoromethyl)phenyl)-3-(4-(2-(4-((4-(2-fluoro-5-((4-oxo-3,4-dihydrophthalazin-1-yl)methyl)benzoyl)piperazin-1-yl)methyl)-1H-1,2,3-triazol-1-yl)ethylamino)phenylsulfonyl)-2-hydroxy-2-methylpropanamide] |  |  |  | 0.4 nM | 504 nM | 2 nM |
| C[C@]12CCC(=O)C[C@@H]1CC[C@@H]1[C@@H]2CC[C@@]2(C)[C@H]1CC[C@@]2(O)C#CC(=O)N1CCN(C(=O)c2cc(Cc3n[nH]c(=O)c4ccccc34)ccc2F)CC1 [Compound 1.116, 4-(4-fluoro-3-(4-(3-((5S,8R,9S,10S,13S,14S,17S)-17-hydroxy-10,13-dimethyl-3-oxohexadecahydro-1H-cyclopenta[a]phenanthren-17-yl)propioloyl)piperazine-1-carbonyl)benzyl)phthalazin-1(2H)-one] | 0.2 nM | 4970 nM | 0.5 nM |  |  |  |
